PubChem BioAssay (NCI)
Where “and” joins values, the source holds several entries; their conditions need not be identical. Equal entries are not always repeated.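 Cultured in 96-well plates, cells were exposed to test compound for 48 hours across five concentrations. The concentration for 50% growth inhibition is given as GI50. At the TGI there is no net growth.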

What was measured:
Assay in all cases: NCI-60 cell line screen, 48 h
[1] = system: M14 melanoma
[2] = system: SK-OV-3 ovarian
[3] = system: SF-295 CNS
[4] = system: SK-MEL-28 melanoma
[5] = system: TK-10 renal
[6] = system: NCI/ADR-RES ovarian
[7] = system: PC-3 prostate
[8] = system: BT-549 breast
[9] = system: RXF 393 renal
[10] = system: UO-31 renal
[11] = system: NCI-H226 lung
[12] = system: HT29 colon
[13] = system: A498 renal
[14] = system: MOLT-4 leukemia
[15] = system: OVCAR-4 ovarian
[16] = system: ACHN renal
[17] = system: SNB-75 CNS
[18] = system: MALME-3M melanoma
[19] = system: OVCAR-3 ovarian
[20] = system: MCF7 breast
[21] = system: SNB-19 CNS
[22] = system: HCC-2998 colon
[23] = system: MDA-N
[24] = system: NCI-H23 lung
[25] = system: HOP-62 NSCLC
[26] = system: DU-145 prostate
[27] = system: UACC-62 melanoma
[28] = system: HOP-92 NSCLC
[29] = system: OVCAR-8 ovarian
[30] = system: SN12C renal
[31] = system: NCI-H522 lung
[32] = system: HL-60(TB) leukemia
[33] = system: MDA-MB-435
[34] = system: SK-MEL-5 melanoma
[35] = system: SW-620 colon
[36] = system: NCI-H460 lung
[37] = system: SK-MEL-2 melanoma
[38] = system: HS 578T breast
[39] = system: UACC-257 melanoma
[40] = system: LOX IMVI melanoma
[41] = system: RPMI-8226 leukemia
[42] = system: IGROV1 ovarian
[43] = system: CAKI-1 renal
[44] = system: U251 CNS
[45] = system: SF-268 CNS
[46] = system: OVCAR-5 ovarian
[47] = system: HCT-116 colon
[48] = system: COLO 205 colon
[49] = system: MDA-MB-231 breast
[50] = system: EKVX NSCLC
[51] = system: T-47D breast
[52] = system: 786-0 renal
[53] = system: SF-539 CNS
[54] = system: KM12 colon
[55] = system: HCT-15 colon
[56] = system: SR leukemia
[57] = system: A549 NSCLC
[58] = system: CCRF-CEM leukemia
[59] = system: K-562 leukemia

Fc1cc2nc3n(c2cc1F)C(c1c(Cl)cccc1Cl)SC3 (stereo not drawn)
TGI [1]: 29 µM | TGI [2]: 30.6 µM | TGI [3]: 26.2 µM | TGI [4]: 28.6 µM | TGI [5]: 32.2 µM | TGI [6]: 37.7 µM | TGI [7]: 31.3 µM | TGI [8]: 40.3 µM | TGI [9]: 28.5 µM | TGI [10]: 29.3 µM | TGI [11]: 45.7 µM | TGI [12]: 29.8 µM | TGI [13]: 34.6 µM | TGI [14]: > 100 µM | TGI [15]: 30.1 µM | TGI [16]: 31.7 µM | TGI [17]: 26.8 µM | TGI [18]: 33.8 µM | TGI [19]: 25.7 µM | TGI [20]: 33.1 µM | TGI [21]: 27 µM | TGI [22]: 29.3 µM | TGI [23]: 29.5 µM | TGI [24]: 35.7 µM | TGI [25]: 29.6 µM | TGI [26]: 32.2 µM | TGI [27]: 26.4 µM | TGI [28]: 30.8 µM | TGI [29]: 29.5 µM | TGI [30]: 29.8 µM | TGI [31]: 35.1 µM | TGI [32]: 70.9 µM | TGI [33]: 28.9 µM | TGI [34]: 20.4 µM | TGI [35]: 34 µM | TGI [36]: 26.6 µM | TGI [37]: 33.6 µM | TGI [38]: 53.2 µM | TGI [39]: 27 µM | TGI [40]: 31.7 µM | TGI [41]: 36.5 µM | TGI [42]: 34 µM | TGI [43]: 27.1 µM | TGI [44]: 31.4 µM | TGI [45]: 34.4 µM | TGI [46]: 27.7 µM | TGI [47]: 25.2 µM | TGI [48]: 36.3 µM | TGI [49]: 34.6 µM | TGI [50]: 32.5 µM | TGI [51]: 31.7 µM | TGI [52]: 28.3 µM | TGI [53]: 37.1 µM | TGI [54]: 26.2 µM | TGI [55]: 36.7 µM | TGI [56]: 48.5 µM | TGI [57]: 28 µM

Clc1nc(-c2ccccc2)nc(Cl)c1Cl
TGI [1]: 19.7 µM | TGI [2]: 27 µM | TGI [3]: 31.5 µM | TGI [4]: 31.6 µM | TGI [5]: 42.6 µM | TGI [6]: 61.3 µM | TGI [7]: 24.6 µM | TGI [8]: 35.6 µM | TGI [9]: 18.9 µM | TGI [10]: > 57.5 µM | TGI [11]: 28.1 µM | TGI [12]: 27.6 µM | TGI [13]: 31.5 µM | TGI [14]: 15 µM | TGI [15]: 38.9 µM | TGI [16]: 9.33 µM | TGI [17]: 29.1 µM | TGI [58]: 7.99 µM | TGI [18]: 17.6 µM | TGI [19]: 21.7 µM | TGI [20]: 24.5 µM | TGI [21]: > 54.2 µM | TGI [22]: 20.5 µM | TGI [23]: 26.6 µM | TGI [24]: 32.6 µM | TGI [25]: 32.3 µM | TGI [26]: 29.9 µM | TGI [27]: 27.8 µM | TGI [28]: 30.3 µM | TGI [29]: 41.2 µM | TGI [30]: 31.4 µM | TGI [31]: 9.95 µM | TGI [32]: 33 µM | TGI [33]: 26.8 µM | TGI [34]: 26.7 µM | TGI [35]: 15.1 µM | TGI [36]: 42.7 µM | TGI [59]: > 43.2 µM | TGI [38]: 47.3 µM | TGI [39]: 28.2 µM | TGI [40]: 5.6 µM | TGI [41]: 28.1 µM | TGI [42]: 21.6 µM | TGI [43]: 8.62 µM | TGI [44]: 21.5 µM | TGI [45]: 30.7 µM | TGI [46]: 30.4 µM | TGI [47]: 17 µM | TGI [48]: 23 µM | TGI [49]: 27.1 µM | TGI [50]: 31.5 µM | TGI [51]: 28.5 µM | TGI [52]: 22.8 µM | TGI [53]: 33.9 µM | TGI [54]: 25.3 µM | TGI [55]: 21.2 µM | TGI [56]: 7.53 µM | TGI [57]: 33.1 µM

Clc1ccc(COC(Cn2ccnc2)c2ccc(Cl)cc2Cl)c(Cl)c1 (stereo not drawn)
GI50 [1]: 3.73 µM | TGI [1]: 14.1 µM and 26.6 µM and 22.4 µM | GI50 [2]: 2.99 µM | TGI [2]: 9.92 µM and 27.5 µM and 27.4 µM | GI50 [3]: 2.29 µM | TGI [3]: 8.73 µM and 23.7 µM and 23.8 µM | GI50 [4]: 4.96 µM | TGI [4]: 17.8 µM and 34.2 µM and 26 µM | GI50 [5]: 10.7 µM | TGI [5]: 22.9 µM and 29.6 µM | GI50 [6]: 3.06 µM | TGI [6]: 13.3 µM and 25.2 µM and 16 µM | GI50 [7]: 3.07 µM | TGI [7]: 13.8 µM and 20.6 µM and 20.3 µM | GI50 [8]: 4.7 µM | TGI [8]: 16 µM and 30.4 µM | GI50 [9]: 2.78 µM and 12.1 µM and 3.84 µM | TGI [9]: 10.5 µM and 26 µM and 14.5 µM | GI50 [10]: 2.3 µM | TGI [10]: 12.4 µM and 16.5 µM and 13.6 µM | GI50 [11]: 1.55 µM and 4.44 µM and 9.24 µM | TGI [11]: 3.31 µM and 23.2 µM and 24.2 µM | GI50 [12]: 3.55 µM and 7.53 µM and 3.17 µM | TGI [12]: 15.4 µM and 21.1 µM and 15.5 µM | TGI [13]: 17.6 µM and 27.3 µM and 19.6 µM | TGI [14]: 15.1 µM and 22.2 µM and 13.9 µM | GI50 [15]: 2.91 µM | TGI [15]: 18.4 µM and 23.3 µM and 25.7 µM | GI50 [16]: 4.51 µM | TGI [16]: 16.1 µM and 30.1 µM and 24.6 µM | TGI [17]: 12.6 µM and 28.8 µM and 16.2 µM | GI50 [58]: 4.55 µM | TGI [58]: 21.2 µM and 24.8 µM and 19.8 µM | GI50 [18]: 4.52 µM | TGI [18]: 17.1 µM and 29.6 µM and 25.1 µM | GI50 [19]: 5.35 µM | TGI [19]: 17.1 µM and 25 µM and 21.5 µM | GI50 [20]: 3.57 µM | TGI [20]: 12.4 µM and 27.8 µM and 33.3 µM | GI50 [21]: 3.24 µM | TGI [21]: 14.6 µM and 29.6 µM and 29.3 µM | GI50 [22]: 3.78 µM | TGI [22]: 14.9 µM and 35.6 µM and 26.3 µM | TGI [23]: 17.5 µM and 15.6 µM | GI50 [24]: 3.03 µM | TGI [24]: 14.6 µM and 25.8 µM and 22.4 µM | GI50 [25]: 2.07 µM | TGI [25]: 5.73 µM and 27.2 µM and 26.6 µM | GI50 [26]: 11.3 µM | TGI [26]: 23.5 µM and 29.6 µM and 25.6 µM | GI50 [27]: 2.06 µM | TGI [27]: 10.2 µM and 25 µM and 23.3 µM | GI50 [28]: 1.74 µM | TGI [28]: 8.44 µM and 27.1 µM | GI50 [29]: 4.21 µM | TGI [29]: 27.3 µM and 36.9 µM and 22.1 µM | GI50 [30]: 2.63 µM | TGI [30]: 11.7 µM and 27.1 µM and 20.7 µM | TGI [31]: 23.7 µM and 22.8 µM | GI50 [32]: 2.34 µM | TGI [32]: 6.21 µM and 17 µM and 7.02 µM | GI50 [33]: 2.39 µM | TGI [33]: 6.89 µM and 13 µM and 9.97 µM | GI50 [35]: 4.34 µM | TGI [35]: 17.5 µM and 29.9 µM and 28.8 µM | GI50 [36]: 4.38 µM | TGI [36]: 19.3 µM and > 100 µM and 35 µM | TGI [59]: 21.2 µM and 16.4 µM | TGI [37]: 32.6 µM and 28.8 µM | GI50 [38]: 5.49 µM | TGI [38]: 24 µM and 32 µM | GI50 [39]: 5.08 µM | TGI [39]: 17.7 µM and 30.3 µM and 23.2 µM | GI50 [40]: 3.51 µM | TGI [40]: 16.2 µM and 34.3 µM and 24.8 µM | GI50 [41]: 3.67 µM | TGI [41]: 18.8 µM and 37.7 µM | GI50 [42]: 3.59 µM and 10.6 µM and 1.37 µM | TGI [42]: 15 µM and 24.7 µM and 10.9 µM | GI50 [43]: 3.18 µM | TGI [43]: 12.9 µM and 26.8 µM and 23.4 µM | GI50 [44]: 3.57 µM | TGI [44]: 16.1 µM and 25.8 µM and 23.6 µM | GI50 [45]: 7.87 µM | TGI [45]: 24.9 µM and 26.9 µM and 28.6 µM | GI50 [46]: 9.81 µM | TGI [46]: 21.7 µM and 32.4 µM and 25.8 µM | GI50 [47]: 2.87 µM | TGI [47]: 11.3 µM and 18.4 µM and 17.7 µM | GI50 [48]: 1.62 µM and 10.1 µM and 3.78 µM | TGI [48]: 3.18 µM and 22.1 µM and 16.1 µM | GI50 [49]: 2.15 µM | TGI [49]: 12.9 µM and 26.2 µM and 24.6 µM | GI50 [50]: 5.64 µM | TGI [50]: 18.4 µM and 29.1 µM and 23.1 µM | GI50 [51]: 2 µM | TGI [51]: 8.33 µM and 24.6 µM and 21.6 µM | GI50 [52]: 4.2 µM | TGI [52]: 14.5 µM and 21 µM and 22.9 µM | TGI [53]: 27.8 µM and 32.7 µM and 27.7 µM | GI50 [54]: 4.36 µM | TGI [54]: 15.5 µM and 26.4 µM and 28.8 µM | GI50 [55]: 3.94 µM | TGI [55]: 14.6 µM and 24.8 µM and 26.6 µM | GI50 [56]: 4.34 µM and 2.47 µM and 5.92 µM | TGI [56]: 18.3 µM and 12.3 µM and 22.4 µM | GI50 [57]: 3.87 µM | TGI [57]: 15.5 µM and 23.8 µM and 23.2 µM
